DBAASP
Converted amounts (≈) assume the structure as drawn. “And” between values parts separate entries of the source, which are not always exact repeats. Equal values may be shown once.

Legend:
Experiment in all cases: ≥ marks a high value that may be exact or a test limit, other limits are often not marked, values filed in µg/mL are converted to µM
[1] = tested on: Yersinia pseudotuberculosis YPIII
[2] = tested on: Escherichia coli ATCC 25922
Bacillus megaterium Bm11 = tested on: Bacillus megaterium Bm11
[3] = tested on: Candida albicans ATCC 10231
[4] = tested on: Staphylococcus aureus Cowan 1
Staphylococcus capitis 1 = tested on: Staphylococcus capitis 1
[5] = tested on: Bacillus subtilis ATCC 6633
[6] = tested on: Staphylococcus aureus ATCC 25923
[7] = tested on: Candida albicans ATCC 20032
[8] = tested on: Escherichia coli ATCC 10536
[9] = tested on: Saccharomyces cerevisiae IFO 1850
[10] = tested on: Acinetobacter baumannii NM8
[11] = tested on: Candida albicans ATCC 90028
[12] = tested on: Acinetobacter baumannii NM35
[13] = tested on: Escherichia coli ATCC 25726
[14] = tested on: Pseudomonas aeruginosa ATCC 27853
[15] = tested on: Staphylococcus epidermidis RP62A
[16] = tested on: Stenotrophomonas maltophilia B32/4
[17] = tested on: Klebsiella pneumoniae ATCC 700603
[18] = tested on: Staphylococcus epidermidis RP62A/1
[19] = tested on: Salmonella typhimurium KCTC 1926
[20] = tested on: Listeria monocytogenes KCTC 3710
[21] = tested on: Staphylococcus aureus CCARM 3108
[22] = tested on: Salmonella typhimurium CCARM 8007
[23] = tested on: Salmonella typhimurium CCARM 8013
[24] = tested on: Staphylococcus aureus CCARM 3114
[25] = tested on: Staphylococcus aureus CCARM 3090
[26] = tested on: Salmonella typhimurium CCARM 8009
[27] = tested on: Staphylococcus aureus KCTC 1621
[28] = tested on: Escherichia coli KCTC 1682
[29] = tested on: Candida albicans ATCC 64550
[30] = tested on: Staphylococcus aureus CCARM 3089
[31] = tested on: Pseudomonas aeruginosa KCTC 1637
[32] = tested on: Candida albicans CCARM 14001
[33] = tested on: Staphylococcus aureus CCARM 3126
[34] = tested on: Escherichia coli CCARM 1229
[35] = tested on: Escherichia coli CCARM 1238
[36] = tested on: Bacillus subtilis KCTC 1918
[37] = tested on: Candida albicans CCARM 14007
[38] = tested on: Bacillus subtilis var. niger ATCC 9372
Escherichia coli K91BK = tested on: Escherichia coli K91BK
[39] = tested on: Bacillus anthracis Sterne 34F2

SMILES: CC[C@H](C)[C@H](NC(=O)CNC(=O)[C@H](CO)NC(=O)[C@H](CC(C)C)NC(=O)[C@@H](NC(=O)[C@H](CCCN=C(N)N)NC(=O)CNC(=O)[C@@H](NC(=O)[C@H](CC(C)C)NC(=O)[C@@H]1CCCN1C(=O)[C@H](CC(C)C)NC(=O)[C@H](C)N)[C@@H](C)CC)C(C)C)C(=O)N[C@@H](CC(C)C)C(N)=O [ALPLIGRVLSGIL]
- MIC [1]: ≥ 40 µM
- MIC [2]: > 40 µM
- MIC (Bacillus megaterium Bm11): 20 µM (≈ 26.4 µg/mL)
- MIC [3]: > 40 µM
- MIC [4]: ≥ 40 µM
- MIC (Staphylococcus capitis 1): ≥ 40 µM

SMILES: CC[C@H](C)[C@H](NC(=O)CN)C(=O)NCC(=O)N[C@H](C(=O)N[C@@H](CCCCN)C(=O)N[C@@H](Cc1ccccc1)C(=O)N[C@@H](CC(C)C)C(=O)NCC(=O)NCC(=O)N[C@H](C(=O)N[C@@H](CCCCN)C(=O)N[C@H](C(=O)N[C@@H](C)C(=O)N[C@@H](CC(C)C)C(=O)N[C@@H](CCCCN)C(=O)NCC(=O)N[C@@H](C)C(=O)N[C@@H](CC(C)C)C(=O)N[C@@H](CCCCN)C(=O)N[C@@H](CCC(=O)O)C(=O)N[C@@H](CC(C)C)C(=O)N[C@@H](C)C(=O)N[C@@H](CO)C(=O)N[C@H](C(=O)N[C@@H](Cc1ccc(O)cc1)C(=O)N[C@H](C(=O)N[C@@H](CC(N)=O)C(N)=O)C(C)C)[C@@H](C)O)[C@@H](C)O)C(C)C)[C@@H](C)O [GIGTKFLGGVKTALKGALKELASTYVN]
- MIC [2]: 3.43 µM (≈ 9.4 µg/mL)
- MIC [5]: 27.4 µM (≈ 75 µg/mL)
- MIC [6]: 1.72 µM (≈ 4.7 µg/mL)
- MIC [7]: 27.4 µM (≈ 75 µg/mL)

SMILES: CC(C)C[C@H](NC(=O)[C@H](CCCN=C(N)N)NC(=O)CNC(=O)CNC(=O)[C@@H](NC(=O)[C@H](CCCCN)NC(=O)[C@@H]1CCCN1C(=O)[C@H](Cc1ccccc1)NC(=O)[C@H](Cc1ccc(O)cc1)NC(=O)[C@H](CCC(N)=O)NC(=O)[C@H](CCCCN)NC(=O)CN)C(C)C)C(=O)N[C@@H](CO)C(=O)NCC(=O)N[C@@H](CCCCN)C(=O)N[C@@H](C)C(=O)N1CCC[C@H]1C(=O)N[C@@H](CC(C)C)C(=O)N[C@@H](C)C(=O)N[C@@H](C)C(=O)N[C@@H](CCCCN)C(=O)N[C@H](C(=O)N[C@@H](Cc1cnc[nH]1)C(=O)N[C@@H](CCCN=C(N)N)C(=O)N[C@@H](CCCN=C(N)N)C(=O)N[C@@H](CC(C)C)C(=O)N[C@@H](CCCCN)C(=O)N1CCC[C@H]1C(N)=O)[C@@H](C)O [GKQYFPKVGGRLSGKAPLAAKTHRRLKP]
- MIC [8]: 9.14 µM (≈ 28 µg/mL)
- MIC [5]: 3.92 µM (≈ 12 µg/mL)
- MIC [9]: 3.92 µM (≈ 12 µg/mL)

SMILES: CC[C@H](C)[C@H](NC(=O)CNC(=O)[C@H](CCCCN)NC(=O)[C@H](CCCCN)NC(=O)[C@H](CC(C)C)NC(=O)[C@H](CO)NC(=O)CNC(=O)[C@H](CC(C)C)NC(=O)CNC(=O)[C@H](C)NC(=O)[C@H](CCCCN)NC(=O)[C@H](Cc1ccccc1)NC(=O)[C@@H](NC(=O)[C@H](CCCCN)NC(=O)[C@H](CCCCN)NC(=O)[C@H](CC(C)C)NC(=O)CN)[C@@H](C)CC)C(=O)N[C@@H](C)C(=O)N[C@@H](C)C(=O)N[C@@H](Cc1cnc[nH]1)C(=O)N[C@H](C(=O)N[C@@H](C)C(=O)N[C@@H](CO)C(N)=O)C(C)C [GLKKIFKAGLGSLKKGIAAHVAS]
- MIC [10]: 10 µM (≈ 22.9 µg/mL)
- MIC [11]: ≥ 40 µM
- MIC [6]: > 250 µM
- MIC [12]: 20 µM (≈ 45.9 µg/mL)
- MIC [13]: 10 µM (≈ 22.9 µg/mL)

SMILES: CC[C@H](C)[C@H](N)C(=O)N[C@@H](CC(C)C)C(=O)NCC(=O)N[C@@H](CCCCN)C(=O)N[C@@H](CC(C)C)C(=O)N[C@@H](CC(C)C)C(=O)N[C@@H](CCCCN)C(=O)N[C@H](C(=O)N[C@@H](C)C(=O)N[C@@H](C)C(=O)NCC(=O)N[C@@H](CC(C)C)C(=O)N[C@@H](CC(C)C)C(=O)N[C@@H](CO)C(=O)N[C@@H](CC(N)=O)C(=O)N[C@@H](CC(C)C)C(N)=O)[C@@H](C)O [ILGKLLKTAAGLLSNL]
- MIC [14]: 64 µM (≈ 104 µg/mL)
- MIC [15]: 4 µM (≈ 6.5 µg/mL)
- MIC [10]: ≥ 64 µM
- MIC [11]: ≥ 128 µM
- MIC [6]: 8 µM (≈ 13 µg/mL)
- MIC [16]: ≥ 64 µM
- MIC [17]: 64 µM (≈ 104 µg/mL)
- MIC [18]: 4 µM (≈ 6.5 µg/mL)
- MIC [13]: ≥ 64 µM

SMILES: NCCCC[C@H](NC(=O)[C@H](Cc1c[nH]c2ccccc12)NC(=O)[C@H](CCCCN)NC(=O)[C@H](Cc1c[nH]c2ccccc12)NC(=O)[C@H](CCCCN)NC(=O)[C@H](Cc1c[nH]c2ccccc12)NC(=O)[C@@H](N)CCCCN)C(=O)N[C@@H](Cc1c[nH]c2ccccc12)C(N)=O [KWKWKWKW]
- MIC [19]: 1.56 µM (≈ 1.99 µg/mL)
- MIC [20]: 3.12 µM (≈ 3.98 µg/mL)
- MIC [21]: 12.5 µM (≈ 15.9 µg/mL)
- MIC [22]: 12.5 µM (≈ 15.9 µg/mL)
- MIC [23]: 6.25 µM and 12.5 µM
- MIC [24]: 12.5 µM (≈ 15.9 µg/mL)
- MIC [25]: 12.5 µM (≈ 15.9 µg/mL)
- MIC [26]: 6.25 µM and 12.5 µM
- MIC [27]: 6.25 µM and 12.5 µM
- MIC [28]: 6.25 µM and 12.5 µM
- MIC [29]: ≥ 50 µM
- MIC [30]: 12.5 µM (≈ 15.9 µg/mL)
- MIC [31]: 3.12 µM (≈ 3.98 µg/mL)
- MIC [32]: ≥ 32 µM
- MIC [33]: 12.5 µM (≈ 15.9 µg/mL)
- MIC [34]: 6.25 µM and 12.5 µM
- MIC [35]: 12.5 µM (≈ 15.9 µg/mL)
- MIC [36]: 6.25 µM and 12.5 µM
- MIC [37]: ≥ 32 µM

SMILES: CC(=O)N[C@@H](CCCN=C(N)N)C(=O)N[C@@H](CCCN=C(N)N)C(=O)N[C@@H](CCCN=C(N)N)C(=O)N[C@@H](C)C(=O)N[C@@H](C)C(=O)N[C@@H](Cc1ccccc1)C(=O)N[C@@H](C)C(=O)N[C@@H](C)C(=O)N[C@@H](Cc1c[nH]c2ccccc12)C(=O)N[C@@H](C)C(=O)N[C@@H](C)C(=O)N[C@@H](Cc1ccccc1)C(=O)N[C@@H](C)C(=O)N[C@@H](C)C(=O)N[C@@H](CCCN=C(N)N)C(=O)N[C@@H](CCCN=C(N)N)C(=O)N[C@@H](CCCN=C(N)N)C(N)=O [RRRAAFAAWAAFAARRR]
- MIC [38]: ≥ 50 µM
- MIC (Escherichia coli K91BK): ≥ 100 µM
- MIC [39]: ≥ 100 µM
